# Experimental data: US20240254118A1, “PRMT5 INHIBITORS AND USES THEREOF” (Gilead Sciences, Inc., priority 2022, published 2024)
# pEC50: −log10 of the molar value.
# Assays:
# [1] = test system: SDMA signal (PRMT5 inhibition) in HCT116 MTAP-deleted cells; assay: Symmetric di-methyl arginine image-based high content screen assay (SDMA assay), HCT116 MTAP-deleted; type: cell-based; conditions: SDMA assay; for pEC50: Homo sapiens, HCT-116, 72 h, 3 days of treatment, cell line not given, taken as HCT116 MTAP-deleted, read-out: EC50 (SDMA assay); for EC50 selectivity (SDMA assay): taken as HCT116 WT versus MTAP-deleted
# Procedure, shortened: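 Read-out: per-cell mean SDMA immunofluorescence (Alexa Fluor 488 secondary), cells segmented by DAPI on a high-content imager. Compound exposure in HCT116 MTAP-deleted cells lasted until fixation on Day 3; overnight 4° C primary anti-SDMA antibody staining.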
# [2] = test system: HCT116 MTAP-deleted cells; assay: Cell viability assay (CellTiter-Glo, 7 days), HCT116 MTAP-deleted; conditions: Homo sapiens, HCT-116, 168 h
Structure (SMILES),pEC50 [1],EC50 selectivity (SDMA assay) [1],CC50 [2] [nM]
"CN(C(=O)C1CC1)N(Cc1ccc(-c2cnsc2)cc1F)C(=O)c1ccc2nc(N)c3cnn(C)c3c2c1 [Example 240, 4-amino-N′-(cyclopropanecarbonyl)-N-(2-fluoro-4-(isothiazol-4-yl)benzyl)-N′,1-dimethyl-1H-pyrazolo[4,3-c]quinoline-8-carbohydrazide]",> 9.00,95,< 100
"CC(=O)N(C)N(Cc1ccc(-c2cnn(C(F)F)c2)cc1F)C(=O)c1ccc2nc(N)c3cnn(C)c3c2c1 [Example 242, N′-acetyl-4-amino-N-(4-(1-(difluoromethyl)-1H-pyrazol-4-yl)-2-fluorobenzyl)-N′,1-dimethyl-1H-pyrazolo[4,3-c]quinoline-8-carbohydrazide]",> 9.00,77,< 100
"CC(=O)N(C)N(Cc1ccc(-c2ccnn2C)cc1F)C(=O)c1ccc2nc(N)c3cnn(C)c3c2c1 [Example 243, N′-acetyl-4-amino-N-(2-fluoro-4-(1-methyl-1H-pyrazol-5-yl)benzyl)-N′,1-dimethyl-1H-pyrazolo[4,3-c]quinoline-8-carbohydrazide]",> 9.00,171,< 100
"CC(=O)N(C)N(Cc1ccc(-c2ccnn2C(F)(F)F)cc1F)C(=O)c1ccc2nc(N)c3cnn(C)c3c2c1 [Example 244, N′-acetyl-4-amino-N-(2-fluoro-4-(1-(trifluoromethyl)-1H-pyrazol-5-yl)benzyl)-N′,1-dimethyl-1H-pyrazolo[4,3-c]quinoline-8-carbohydrazide]",> 9.00,109,< 100
"CN(C(=O)C12CC(C1)C2)N(Cc1ccc(C(F)(F)F)nn1)C(=O)c1cc2c(cc1F)nc(N)c1cnn(C)c12 [Example 246, 4-amino-N′-(bicyclo[1.1.1]pentane-1-carbonyl)-7-fluoro-N′, 1-dimethyl-N-((6-(trifluoromethyl)pyridazin-3-yl)methyl)-1H-pyrazolo[4,3-c]quinoline-8-carbohydrazide]",8.30 to 9.00,288,100 to 1000
"CN(C(=O)C12CC(C1)C2)N(Cc1ccc(C(F)(F)F)nn1)C(=O)c1ccc2nc(N)c3cnn(C)c3c2c1 [Example 248, 4-amino-N′-(bicyclo[1.1.1]pentane-1-carbonyl)-N′,1-dimethyl-N-((6-(trifluoromethyl)pyridazin-3-yl)methyl)-1H-pyrazolo[4,3-c]quinoline-8-carbohydrazide]",8.30 to 9.00,536,100 to 1000
"CC(=O)N(C)N(Cc1ccc(-c2ccn(C(F)(F)F)n2)cc1F)C(=O)c1ccc2nc(N)c3cnn(C)c3c2c1 [Example 249, N′-acetyl-4-amino-N-(2-fluoro-4-(1-(trifluoromethyl)-1H-pyrazol-3-yl)benzyl)-N′,1-dimethyl-1H-pyrazolo[4,3-c]quinoline-8-carbohydrazide]",> 9.00,193,< 100
"CC(=O)N(C)N(Cc1ccc(-c2csc(C(F)(F)F)n2)cc1F)C(=O)c1ccc2nc(N)c3cnn(C)c3c2c1 [Example 250, N′-acetyl-4-amino-N-(2-fluoro-4-(2-(trifluoromethyl)thiazol-4-yl)benzyl)-N′,1-dimethyl-1H-pyrazolo[4,3-c]quinoline-8-carbohydrazide]",> 9.00,153,< 100
"COC(=O)N(C)N(Cc1ccc(C(F)(F)F)cn1)C(=O)c1ccc2nc(N)c3cnn(C)c3c2c1 [Example 253, methyl 2-(4-amino-1-methyl-1H-pyrazolo[4,3-c]quinoline-8-carbonyl)-1-methyl-2-((5-(trifluoromethyl)pyridin-2-yl)methyl)hydrazine-1-carboxylate]",> 9.00,28,< 100
"[2H]C([2H])(c1ccc(C(F)(F)F)cn1)N(C(=O)c1ccc2nc(N)c3cnn(C([2H])([2H])[2H])c3c2c1)N(C)C(=O)C1CC1 [Example 254, 4-amino-N′-(cyclopropanecarbonyl)-N′-methyl-1-(methyl-d3)-N-((5-(trifluoromethyl)pyridin-2-yl)methyl-d2)-1H-pyrazolo[4,3-c]quinoline-8-carbohydrazide]",> 9.00,266,< 100
"CN(C(=O)[C@H]1C[C@@H]1F)N(Cc1ccc(C(F)(F)F)cn1)C(=O)c1ccc2nc(N)c3cnn(C)c3c2c1 [Example 255, 4-amino-N′-((1R,2S)-2-fluorocyclopropane-1-carbonyl)-N′,1-dimethyl-N-((5-(trifluoromethyl)pyridin-2-yl)methyl)-1H-pyrazolo[4,3-c]quinoline-8-carbohydrazide]",> 9.00,51,< 100
"[2H]C([2H])(c1ccc(C(F)(F)F)cn1)N(C(=O)c1ccc2nc(N)c3cnn(C)c3c2c1)N(C)C(=O)C1CC1 [Example 256, 4-amino-N′-(cyclopropanecarbonyl)-N′,1-dimethyl-N-((5-(trifluoromethyl)pyridin-2-yl)methyl-d2)-1H-pyrazolo[4,3-c]quinoline-8-carbohydrazide]",> 9.00,130,< 100
"[2H]C([2H])([2H])n1ncc2c(N)nc3ccc(C(=O)N(Cc4ccc(C(F)(F)F)cn4)N(C)C(=O)C4CC4)cc3c21 [Example 257, 4-amino-N′-(cyclopropanecarbonyl)-N′-methyl-1-(methyl-d3)-N-((5-(trifluoromethyl)pyridin-2-yl)methyl)-1H-pyrazolo[4,3-c]quinoline-8-carbohydrazide]",> 9.00,213,< 100
"CN(C(=O)[C@H]1C[C@H]1F)N(Cc1ccc(C(F)(F)F)cn1)C(=O)c1ccc2nc(N)c3cnn(C)c3c2c1 [Example 258, 4-amino-N′-((1R,2R)-2-fluorocyclopropane-1-carbonyl)-N′,1-dimethyl-N-((5-(trifluoromethyl)pyridin-2-yl)methyl)-1H-pyrazolo[4,3-c]quinoline-8-carbohydrazide]",8.30 to 9.00,221,< 100
"CN(C(=O)C1CC1)N(Cc1nc2cc(Cl)ccc2o1)C(=O)c1ccc2nc(N)c3cnn(C)c3c2c1 [Example 259, 4-amino-N-((5-chlorobenzo[d]oxazol-2-yl)methyl)-N′-(cyclopropanecarbonyl)-N′,1-dimethyl-1H-pyrazolo[4,3-c]quinoline-8-carbohydrazide]",8.30 to 9.00,182,< 100
"Cn1ncc2c(N)nc3ccc(C(=O)N(Cc4ccc(C(F)(F)F)cn4)N4C(=O)O[C@@H]5CC[C@@H]54)cc3c21 [Example 260, 4-amino-1-methyl-N-((1R,5S)-3-oxo-2-oxa-4-azabicyclo[3.2.0]heptan-4-yl)-N-((5-(trifluoromethyl)pyridin-2-yl)methyl)-1H-pyrazolo[4,3-c]quinoline-8-carboxamide]",8.30 to 9.00,211,< 100
"CC(=O)N(C)N(Cc1ncc(C(F)(F)F)cc1Cl)C(=O)c1ccc2nc(N)c3cnn(C)c3c2c1 [Example 261, N′-acetyl-4-amino-N-((3-chloro-5-(trifluoromethyl)pyridin-2-yl)methyl)-N′,1-dimethyl-1H-pyrazolo[4,3-c]quinoline-8-carbohydrazide]",8.30 to 9.00,257,< 100
